Reference: article PMC6679700 (International Journal of Nanomedicine, 2019)

Experiments:
[1] = cited from earlier work
[2] = Solubility of FK506 in water, MCE and MCE ME; format: physicochemical; conditions: menthol/camphor eutectic, ratio 3/1 (w/w)
[3] = test system: TRPM8; conditions: skin; cited from earlier work

Structure (SMILES) | Aqueous solubility [1] | Solubility of FK506 in MCE [2] | Duration of cool sensation [3]
C=CC[C@@H]1/C=C(\C)C[C@H](C)C[C@H](OC)[C@H]2O[C@@](O)(C(=O)C(=O)N3CCCC[C@H]3C(=O)O[C@H](/C(C)=C/[C@@H]3CC[C@@H](O)[C@H](OC)C3)[C@H](C)[C@@H](O)CC1=O)[C@H](C)C[C@@H]2OC [FK506, Tacrolimus] | 4 to 12 µg/mL | 136 mg/mL | 
CC1CCC(C(C)C)C(O)C1 (stereo not drawn) [Menthol, menthol] |  |  | up to 70 mins
